Experimental data as given in patent US20150272939A1, “Identification of Small Molecule Inhibitors of Jumonji AT-Rich Interactive Domain 1A (JARID1A) and 1B (JARID1B) Histone Demethylase” (Yale University, priority 2012, published 2015).
Read-outs that look alike come from different tables or passages of the source.

What was measured:
[1] = AlphaScreen counterscreen against bio-H3K4me2 peptide in the absence of enzyme (artifact signal); details: for Artifact Signal (percent): effect of the compound when incubated with bio-H3K4me2 peptide (counterscreen, no enzyme);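 as to all read-outs here: counterscreen run without enzyme against bio-H3K4me2 peptide to remove false positive hits from the JARID1 demethylase AlphaScreen screen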
JARID1B = molecular target: T1, JARID1B (Homo sapiens, UniProt Q9UGL1); test: FLAG-JARID1B histone demethylase assay with AlphaScreen detection (HTS and dose response); assay type: biochemical; details: for inhibition at 20 µM: read-out: Inhibitory effect (percent); for Assay − Artifact Signal (percent): assay signal minus artifact signal; for Assay Signal (percent): effect of compound in JARID1B AlphaScreen assay;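 as to Assay Signal (percent): compound tested at 20 µM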;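 as to Assay − Artifact Signal (percent): compound tested at 20 µM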;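 as to all read-outs here: FLAG-tagged JARID1B at 4 nM acting on a biotinylated H3K4me3 peptide, demethylation read by AlphaScreen luminescence, with hits checked against bio-H3K4me2 without enzyme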
T1 construct: The FLAG tagged full length JARID1B enzyme was expressed in Sf21 insect cells using FLAG-JARID1B baculoviruses; FLAG (N); made in house; host or cells: Sf21 insect cells (baculovirus)
T1 sequence (Q9UGL1 whole entry): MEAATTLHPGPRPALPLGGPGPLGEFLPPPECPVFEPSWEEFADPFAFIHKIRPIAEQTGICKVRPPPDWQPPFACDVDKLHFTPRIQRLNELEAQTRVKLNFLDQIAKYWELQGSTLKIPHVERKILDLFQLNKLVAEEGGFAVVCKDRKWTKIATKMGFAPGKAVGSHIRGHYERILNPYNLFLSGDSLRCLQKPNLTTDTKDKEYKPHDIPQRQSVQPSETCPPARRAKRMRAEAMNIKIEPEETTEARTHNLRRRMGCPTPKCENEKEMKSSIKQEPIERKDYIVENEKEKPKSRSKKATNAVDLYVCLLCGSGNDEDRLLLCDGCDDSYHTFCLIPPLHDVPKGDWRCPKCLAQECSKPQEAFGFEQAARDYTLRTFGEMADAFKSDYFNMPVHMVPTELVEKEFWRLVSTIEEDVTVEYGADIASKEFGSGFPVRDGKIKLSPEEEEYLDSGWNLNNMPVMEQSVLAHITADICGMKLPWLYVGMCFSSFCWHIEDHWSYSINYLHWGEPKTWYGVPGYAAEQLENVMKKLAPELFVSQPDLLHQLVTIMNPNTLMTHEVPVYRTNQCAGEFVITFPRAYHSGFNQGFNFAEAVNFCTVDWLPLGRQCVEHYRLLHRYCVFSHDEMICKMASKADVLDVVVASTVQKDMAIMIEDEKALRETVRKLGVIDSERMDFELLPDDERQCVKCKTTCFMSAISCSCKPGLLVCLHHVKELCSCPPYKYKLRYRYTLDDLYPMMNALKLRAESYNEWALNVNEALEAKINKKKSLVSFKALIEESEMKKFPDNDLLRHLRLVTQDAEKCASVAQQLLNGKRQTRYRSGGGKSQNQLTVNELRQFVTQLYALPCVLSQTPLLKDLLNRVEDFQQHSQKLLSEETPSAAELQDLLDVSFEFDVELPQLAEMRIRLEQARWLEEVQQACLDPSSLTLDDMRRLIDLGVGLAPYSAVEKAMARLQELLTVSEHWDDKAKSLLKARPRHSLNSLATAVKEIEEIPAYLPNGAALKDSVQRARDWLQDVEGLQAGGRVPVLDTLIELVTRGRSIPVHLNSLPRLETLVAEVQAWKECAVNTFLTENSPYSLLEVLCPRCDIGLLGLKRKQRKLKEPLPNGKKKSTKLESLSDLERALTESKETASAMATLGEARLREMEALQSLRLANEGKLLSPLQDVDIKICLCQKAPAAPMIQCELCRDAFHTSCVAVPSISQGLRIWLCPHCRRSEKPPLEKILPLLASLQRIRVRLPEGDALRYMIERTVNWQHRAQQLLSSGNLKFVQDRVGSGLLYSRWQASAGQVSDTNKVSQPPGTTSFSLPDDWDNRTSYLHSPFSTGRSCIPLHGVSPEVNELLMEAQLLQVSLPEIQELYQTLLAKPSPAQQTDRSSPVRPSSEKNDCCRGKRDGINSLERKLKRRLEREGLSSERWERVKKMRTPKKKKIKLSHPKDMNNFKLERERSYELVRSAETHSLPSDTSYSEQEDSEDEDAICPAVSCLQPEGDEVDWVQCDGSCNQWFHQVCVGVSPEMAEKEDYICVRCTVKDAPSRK

[2] = counterscreen, bio-H3K4me2 peptide, no enzyme
[3] = high-throughput screen, compound 20 μM, standard demethylase conditions (10 μM α-KG, 50 μM Fe (II))
[4] = validation of HTS actives, total signal before subtraction of artifact signal

Structure (SMILES) | Artifact signal: effect of the compound when it is incubated with bio-H3K4me2 peptide [1, 2] | inhibition at 20 µM (JARID1B; [3]) | Validation result of HTS active: effect of the compound in the JARID1B AlphaScreen demethylase assay (JARID1B; [4]) | Artifact Signal (percent) [1] | Assay − Artifact Signal (percent) (JARID1B) | Assay Signal (percent) (JARID1B; validation of HTS actives) | other results
O=C(NCCOc1ccccc1)c1ccccc1 [YU146037] | −1.42 | 32.6% | −0.56 | – | – | – | –
Cc1cccc(NC(c2ccncc2)c2ccc3cccnc3c2O)c1 (stereo not drawn) [YU172170] | – | 70% | – | 48.19% | 16.90% | 65.09% | –
O=C1C=C2C[C@@]3(O)COc4cc(O)ccc4C3=C2C=C1O [YU155025, BRAZILEIN, reference compound] | – | 78.8% | – | −0.14% | 9.26% | 9.12% | –
O=C(O)c1cc(O)c2c(c1)[C@H]([C@H]1c3cc(C(=O)O)cc(O)c3C(=O)c3c(O[C@@H]4O[C@H](CO)[C@H](O)[C@H](O)[C@H]4O)cccc31)c1cccc(O[C@@H]3O[C@H](CO)[C@H](O)[C@H](O)[C@@H]3O)c1C2=O (stereo in doubt) [YU155305, SENNOSIDE B, reference compound] | −0.34 | 105% | 4.04 | – | – | – | –
N.N.[Cl][Pt][Cl] [YU034538, CISPLATIN, reference compound] | – | – | – | 8.53% | 40.64% | 49.17% | Inhibitory effect (percent) (JARID1B; [3]): 40.06%
O=C(O)c1cccc(NCc2ccncc2)c1 [YU145461] | – | 94.6% | – | 0.89% | 95.48% | 96.37% | –
O=c1c(O)cccc2cc(O)c(O)c(O)c12 [YU155440, PURPUROGALLIN, reference compound] | 6.39 | – | 13.64 | – | – | – | inhibition at 20 µM (JARID1B; high-throughput screen, compound 20 μM, IDs marked *: additional hits under reaction condition with 1 mM α-KG): 42.5%
Fc1cccc(-c2nn3c(-c4ccccc4Cl)nnc3s2)c1 [YU153729] | – | 33.9% | – | −3.54% | 14.96% | 11.41% | –
N#CC(C#N)=Cc1cc(O)c(O)c(O)c1 [YU154832, TYRPHOSTIN 25, reference compound] | – | 53.7% | – | 5.21% | 17.87% | 23.08% | –
C=CC1=C(C(=O)O)N2C(=O)[C@@H](NC(=O)/C(=N\OCC(=O)O)c3csc(N)n3)[C@H]2SC1 [YU039791, CEFIXIME TRIHYDRATE, reference compound] | 96.65 | 105% | 104.49 | – | – | – | –
COC(=O)C1=C(C)NC(=O)C1(Nc1nccs1)C(F)(F)F (stereo not drawn) [YU152562] | −15.40 | 39.4% | −8.43 | – | – | – | –
[O-][n+]1ccccc1[S-].[O-][n+]1ccccc1[S-].[Zn+2] [YU033800, PYRITHIONE ZINC, reference compound] | – | – | – | – | – | – | Artifact signal: effect of the compound when it is incubated with bio-H3K4me2 peptide [1]: −19.95; Inhibitory effect (percent) (JARID1B): 99.02%; Validation effect minus artifact signal (JARID1B): 1.60; Validation result of HTS active: effect of the compound in the JARID1B AlphaScreen demethylase assay (JARID1B): −18.35
COc1cc(C=C[N+](=O)[O-])ccc1OCc1cccc(C(=O)O)c1 (single isomer, unassigned) [YU153545] | – | 101% | – | 91.35% | 8.98% | 100.32% | –
CC(=O)Nc1ccc(N2CCC(C(N)=O)(N3CCCCC3)CC2)c(C(=O)O)c1 [YU208195] | 8.81 | 52.9% | 14.20 | – | – | – | –
c1ccc(-c2nn3c(Cn4cnc5ccccc54)nnc3s2)cc1 [YU153935] | – | 40.5% | – | −6.99% | 21.66% | 14.67% | –
